Measured values published in US20110105380A1, “Protection of Nano-Scale Particles from Immune Cell Uptake” (THE TRUSTEES OF THE UNIVERSITY OF PENNSYLVANIA, priority 2009, published 2011).

System: THP-1 macrophages
Assay: Phagocytosis of IgG-opsonized streptavidin beads with or without hCD47 by THP-1 macrophages
Format: cell-based, human
Experimental: The extracellular immunoglobulin-like domains of human CD47 (hCD47) was recombinantly expressed with a spacer domain (Brown et al., 1994, Protein Eng. 7:515-21; Brown et al., 1998, J. Exp. Med. 188:2083-90) plus a C-terminal biotinylation site. […] The beads were opsonized by pretreatment with anti-streptavidin to again induce FcR-mediated phagocytosis (for 45 minutes at 37° C.), and non-engulfed beads were detected with a flourescein anti-Fc against the IgG-opsonin. The number of adherent IgG-opsonized beads per phagocyte was independent of hCD47 (not shown).
For phagocytosis assays, macrophages were plated in 4 cm^2, or 2 cm^2 Lab-Tek II Chambered Coverglass (Nalge Nunc International, Naperville, Ill.) at 1.5×10^5/cm^2. Streptavidin polystyrene beads of different radius: 3.5 μm, 1.1 μm, 160 nm (Spherotech) and 100 nm (Ademtech) were added to macrophages at a ratio of 2:1, 20:1, 277:1, and 2206:1 respectively and incubate at 37° C. for 45 min. […] Non-phagocytosed beads were washed with PBS. Cells were fixed with 5% formaldehyde (Fisher Scientific) for 5 minutes, followed by immediate replacement with PBS. For differentiation of non-internalized beads, beads were labeled with a primary antibody, rabbit anti-streptavidin (Sigma) at 1:1000 in PBS for 20 min at 25° C. A second antibody, anti-rabbit R-PE (Sigma) was added at 1:1000 in PBS to the cells and incubated for an additional 20 minutes at 25° C. Cells were then washed with PBS/0.4% BSA and then quantified by light and fluorescent microscopy. At least 200 cells were scored per well and experiments were repeated at least three times.
For stimulated phagocytosis assays, beads with or without CD47 were incubated with rabbit anti-streptavidin as the IgG opsonin. Beads were opsonized at a concentration 1:1000 for 30 min at 25° C. Opsonized beads were washed 2× and resuspended in 50 μl of PBS/0.4% BSA. Phagocytes were washed with PBS and uningested beads were labeled as described above.
For cytoskeletal involvement at the phagocytic synapse, streptavidin beads opsonized with rabbit anti-streptavidin FITC. Opsonized beads of different sizes were added to THP-1 cells, PMA treated and immediately placed at 4° C. for 10 min to synchronize phagocytosis. […] For studies involving blebbistatin (EMD Biosciences), macrophages were treated for 10 min at 4° C. prior to temperature increase to 37° C. or for 45 min and 37° C. Macrophages treated with DMSO were used to verify no solvent effects.
Beads were opsonized at saturating densities of IgG, and over a 20-fold range of CD47 densities, the number of internalized beads per THP-1 was measured. […] The normal level of CD47 density found on human RBC (Subramanian et al., 2006, Blood 107(6):2548-2556) was indicated by the vertical bars and humans with certain Rhnull phenotypes with reduced levels of CD47 (Mouro-Chanteloup et al., 2003, Blood 101 (1):338-344; Arndt et al., 2004, Br. J. Haematol. 125(3):412-4) was indicated by the vertical bars. The minimum number of CD47 inhibition appears to be consistent across a 30-fold particle size range as depicted by the vertical bars.

SMILES: Cc1ccc2c(c1)C(=O)C1(O)CCN(c3ccccc3)C1=N2 (stereo not drawn) [blebbistatin]
- uptake of 100 nm IgG-opsonized particles (THP-1 treated with 50 μM blebbistatin vs DMSO): decrease in uptake
- phagocytosis of CD47-null beads (blebbistatin 50 μM, 10 min pretreatment of THP-1): inhibited phagocytosis of CD47-null beads to a level similar as hCD47 beads
- uptake of 1.1 μm IgG-opsonized particles (blebbistatin treatment, FIG. 16D): comparable results
